Test results taken from patent publication US20240239785A1, “SUBSTITUTED 2-(2,6-DIOXOPIPERIDIN-3-YL)-5-(1-PIPERIDIN-4-YL)ISOINDOLINE-1,3-DIONE DERIVATIVES AND USES THEREOF” (Neomorph, Inc., priority 2021, published 2024).
Counter-ions that a name gives are not always drawn. Like-named read-outs stand apart in the source and are kept apart here.

Columns and labels:
IKZF2 = target: T1, IKZF2 (Homo sapiens, UniProt Q96SW2+Q9UKS7); assay: MOLT4 IKZF2 HiBit assay; format: cell-based; settings: MOLT4 IKZF2 HiBit cells; for DC50: 6 hours incubation, 10-point dose response from 30 μM; for Dmax at 30 µM: MOLT-4, 6 hr (Dmax), read-out: % reduction of IKZF2 @ 30 μM (6 hr)
T1 construct: endogenous in cells; host or cells: MOLT4 (CRISPR/Cas9 HiBit knock-in at the IKZF2 locus)
Experimental: MOLT4 IKZF2 HiBit Assay Protocol:
This protocol used MOLT4 cells that were engineered using CRISPR/Cas9-mediated genomic insertion of HiBit, tagged to the N terminus of the IKZF2 coding sequence. Day 1. A 10-point dose response was created starting from 30 μM down to InM using a Tecan D300e. Next was added 8,000 cells/well of the MOLT4 IKZF2 HiBit cells to the compound plate. The compounds plate was incubated for 6 hours. Day 2. Nano-Glo HiBit Lytic Buffer/Nano-Glo HiBit Lytic substrate/LgBit Protein mix was added to each well and the compound plate was incubated for 15 minutes. Finally, luminescence signal was read using a BMG Labtech PHERAstar FSX. Data was normalized to DMSO and graphed using GraphPad Prism to determine the concentration points at which 50% of HiBiT-Helios degradation was achieved by each compound. The extent of degradation (range of luminescence) from the highest to lowest concentration points was calculated to determine Dmax.

hERG = hERG (Homo sapiens, UniProt Q12809); assay: hERG IC50
hERG, sequence (Q12809 whole entry): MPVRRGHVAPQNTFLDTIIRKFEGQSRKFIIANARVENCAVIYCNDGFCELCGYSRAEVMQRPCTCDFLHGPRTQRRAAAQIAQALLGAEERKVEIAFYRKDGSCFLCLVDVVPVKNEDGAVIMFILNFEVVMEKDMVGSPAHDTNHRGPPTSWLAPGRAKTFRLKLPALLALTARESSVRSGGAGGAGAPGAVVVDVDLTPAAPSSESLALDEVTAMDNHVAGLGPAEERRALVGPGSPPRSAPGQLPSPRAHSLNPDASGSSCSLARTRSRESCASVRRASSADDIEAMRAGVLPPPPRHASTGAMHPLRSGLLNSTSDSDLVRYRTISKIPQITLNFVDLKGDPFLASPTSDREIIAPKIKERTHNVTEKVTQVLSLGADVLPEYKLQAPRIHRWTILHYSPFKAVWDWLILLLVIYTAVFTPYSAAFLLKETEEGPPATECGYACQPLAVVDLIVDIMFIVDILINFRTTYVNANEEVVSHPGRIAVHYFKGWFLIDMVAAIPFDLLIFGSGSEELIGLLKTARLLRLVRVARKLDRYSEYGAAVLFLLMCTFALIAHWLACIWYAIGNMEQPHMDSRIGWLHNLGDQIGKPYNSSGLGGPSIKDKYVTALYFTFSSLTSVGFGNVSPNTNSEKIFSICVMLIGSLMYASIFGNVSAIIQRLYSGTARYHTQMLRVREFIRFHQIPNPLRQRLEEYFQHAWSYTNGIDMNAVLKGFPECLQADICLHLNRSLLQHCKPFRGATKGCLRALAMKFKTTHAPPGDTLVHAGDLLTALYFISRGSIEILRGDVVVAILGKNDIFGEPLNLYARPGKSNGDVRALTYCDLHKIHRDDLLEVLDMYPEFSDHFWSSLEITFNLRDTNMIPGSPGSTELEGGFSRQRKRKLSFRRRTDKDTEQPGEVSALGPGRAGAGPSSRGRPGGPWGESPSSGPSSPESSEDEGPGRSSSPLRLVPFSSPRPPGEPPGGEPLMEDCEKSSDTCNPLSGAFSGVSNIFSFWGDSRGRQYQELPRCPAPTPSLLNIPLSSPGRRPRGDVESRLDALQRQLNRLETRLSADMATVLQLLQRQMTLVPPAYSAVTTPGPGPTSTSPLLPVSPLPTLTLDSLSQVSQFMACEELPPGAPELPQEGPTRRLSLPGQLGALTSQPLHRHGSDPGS

T1 sequence (Q9UKS7 whole entry): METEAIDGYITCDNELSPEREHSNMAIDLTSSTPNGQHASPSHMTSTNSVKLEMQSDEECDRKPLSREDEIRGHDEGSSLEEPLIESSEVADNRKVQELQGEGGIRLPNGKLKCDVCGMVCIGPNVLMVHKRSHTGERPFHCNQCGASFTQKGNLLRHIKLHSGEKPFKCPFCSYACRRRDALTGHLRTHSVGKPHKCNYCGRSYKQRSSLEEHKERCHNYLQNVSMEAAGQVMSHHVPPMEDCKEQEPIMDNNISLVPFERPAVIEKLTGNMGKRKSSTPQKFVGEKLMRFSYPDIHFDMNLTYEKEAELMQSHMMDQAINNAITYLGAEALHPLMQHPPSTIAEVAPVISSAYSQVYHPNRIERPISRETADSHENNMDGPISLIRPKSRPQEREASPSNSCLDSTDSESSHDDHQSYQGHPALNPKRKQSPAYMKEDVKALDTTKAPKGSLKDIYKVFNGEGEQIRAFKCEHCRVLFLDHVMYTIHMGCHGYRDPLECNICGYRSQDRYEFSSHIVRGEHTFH
T1 sequence (Q96SW2 whole entry): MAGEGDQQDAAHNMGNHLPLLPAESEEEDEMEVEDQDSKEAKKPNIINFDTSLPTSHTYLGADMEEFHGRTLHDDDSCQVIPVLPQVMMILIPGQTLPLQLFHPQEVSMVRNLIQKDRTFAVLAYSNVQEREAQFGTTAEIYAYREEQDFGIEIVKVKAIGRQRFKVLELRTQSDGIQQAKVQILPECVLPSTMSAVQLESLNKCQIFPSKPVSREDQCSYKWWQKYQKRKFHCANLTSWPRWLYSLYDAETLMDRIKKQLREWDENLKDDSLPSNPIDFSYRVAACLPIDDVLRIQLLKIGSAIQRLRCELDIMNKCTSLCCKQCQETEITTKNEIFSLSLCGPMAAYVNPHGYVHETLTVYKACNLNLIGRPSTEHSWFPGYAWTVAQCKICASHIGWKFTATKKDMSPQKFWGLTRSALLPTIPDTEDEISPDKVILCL
T1 sequence (Q16531 whole entry partner): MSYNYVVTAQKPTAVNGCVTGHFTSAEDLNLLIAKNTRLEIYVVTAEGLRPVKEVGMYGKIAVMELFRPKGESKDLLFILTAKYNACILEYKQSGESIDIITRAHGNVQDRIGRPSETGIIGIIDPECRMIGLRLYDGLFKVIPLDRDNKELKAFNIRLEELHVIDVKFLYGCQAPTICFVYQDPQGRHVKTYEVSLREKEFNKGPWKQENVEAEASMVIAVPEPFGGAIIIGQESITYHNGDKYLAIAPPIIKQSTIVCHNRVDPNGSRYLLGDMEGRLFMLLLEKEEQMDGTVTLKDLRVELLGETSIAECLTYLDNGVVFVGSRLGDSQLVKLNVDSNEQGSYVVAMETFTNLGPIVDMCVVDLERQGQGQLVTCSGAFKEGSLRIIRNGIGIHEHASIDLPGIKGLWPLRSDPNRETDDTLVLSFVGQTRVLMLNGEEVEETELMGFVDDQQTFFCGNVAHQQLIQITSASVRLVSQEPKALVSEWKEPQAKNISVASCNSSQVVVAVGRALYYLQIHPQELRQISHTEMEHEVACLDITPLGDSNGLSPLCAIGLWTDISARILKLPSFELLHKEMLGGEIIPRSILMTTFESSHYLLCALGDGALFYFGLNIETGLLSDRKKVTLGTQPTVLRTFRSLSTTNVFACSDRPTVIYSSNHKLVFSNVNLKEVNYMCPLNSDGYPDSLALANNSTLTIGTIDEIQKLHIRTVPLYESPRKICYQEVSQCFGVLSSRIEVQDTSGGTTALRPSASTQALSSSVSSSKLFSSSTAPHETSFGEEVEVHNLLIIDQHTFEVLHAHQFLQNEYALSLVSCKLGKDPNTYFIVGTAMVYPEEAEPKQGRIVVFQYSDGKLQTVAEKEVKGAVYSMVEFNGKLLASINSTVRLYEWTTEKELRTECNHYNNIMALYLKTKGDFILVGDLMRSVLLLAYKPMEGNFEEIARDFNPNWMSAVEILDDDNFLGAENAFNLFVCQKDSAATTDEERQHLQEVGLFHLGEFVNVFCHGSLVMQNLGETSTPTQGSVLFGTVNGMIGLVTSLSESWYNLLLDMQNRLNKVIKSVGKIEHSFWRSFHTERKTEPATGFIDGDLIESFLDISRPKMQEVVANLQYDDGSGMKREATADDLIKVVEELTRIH

Structure (SMILES)	DC50 (IKZF2) [nM]	Dmax at 30 µM (IKZF2) [%]	IC50 (hERG; human) [nM]	IC50 (hERG) [nM]
O=C1CCC(N2C(=O)c3ccc(C4(O)CCN(Cc5ccc(F)cc5)CC4)c(F)c3C2=O)C(=O)N1 (stereo not drawn) [Compound 132, 2-(2,6-dioxopiperidin-3-yl)-4-fluoro-5-(1-(4-fluorobenzyl)-4-hydroxypiperidin-4-yl)isoindoline-1,3-dione]	7	79	30000	–
O=C1CCC(N2C(=O)c3ccc(C4(O)CCN(Cc5ccc(F)c(F)c5)CC4)cc3C2=O)C(=O)N1 (stereo not drawn) [Compound 60, 5-{1-[(3,4-difluorophenyl)methyl]-4-hydroxypiperidin-4-yl}-2-(2,6-dioxopiperidin-3-yl)-2,3-dihydro-1H-isoindole-1,3-dione, HCl salt]	6	80	–	23000
CC1CC(O)(c2ccc3c(c2)C(=O)N(C2CCC(=O)NC2=O)C3=O)CCN1Cc1ccccc1 (stereo not drawn) [Compound 15, 5-(1-benzyl-4-hydroxy-2-methylpiperidin-4-yl)-2-(2,6-dioxopiperidin-3-yl)-2,3-dihydro-1H-isoindole-1,3-dione]	12	66	–	> 30000
CC(c1ccccc1)N1CCC(O)(c2ccc3c(c2)C(=O)N(C2CCC(=O)NC2=O)C3=O)CC1 (stereo not drawn) [Compound 35, 2-(2,6-dioxopiperidin-3-yl)-5-[4-hydroxy-1-(1-phenylethyl)piperidin-4-yl]-2,3-dihydro-1H-isoindole-1,3-dione, HCl salt]	4	84	–	–
O=C1CCC(N2C(=O)c3ccc(C4(O)CCN(Cc5ccncc5)CC4)cc3C2=O)C(=O)N1 (stereo not drawn) [Compound 70, 2-(2,6-dioxopiperidin-3-yl)-5-{4-hydroxy-1-[(pyridin-4-yl)methyl]piperidin-4-yl}-2,3-dihydro-1H-isoindole-1,3-dione, HCl salt]	20	78	–	–
O=C1CCC(N2C(=O)c3ccc(C4(O)CCN(Cc5ccc6scnc6c5)CC4)cc3C2=O)C(=O)N1 (stereo not drawn) [Compound 111, 5-{1-[(1,3-benzothiazol-5-yl)methyl]-4-hydroxypiperidin-4-yl}-2-(2,6-dioxopiperidin-3-yl)-2,3-dihydro-1H-isoindole-1,3-dione, HCl salt]	5	83	–	> 30000
O=C1CCC(N2C(=O)c3ccc(C4(O)CCN(Cc5coc(-c6ccccc6)n5)CC4)cc3C2=O)C(=O)N1 (stereo not drawn) [Compound 91, 2-(2,6-dioxopiperidin-3-yl)-5-{4-hydroxy-1-[(2-phenyl-1,3-oxazol-4-yl)methyl]piperidin-4-yl}-2,3-dihydro-1H-isoindole-1,3-dione, HCl salt]	21	60	–	–
O=C1CCC(N2C(=O)c3ccc(C4(O)CCN(C5CCc6ncccc65)CC4)cc3C2=O)C(=O)N1 (stereo not drawn) [Compound 7, 5-(1-{5H,6H,7H-cyclopenta[b]pyridin-5-yl}-4-hydroxypiperidin-4-yl)-2-(2,6-dioxopiperidin-3-yl)-2,3-dihydro-1H-isoindole-1,3-dione, HCl salt]	9	90	–	> 30000
Cn1ccc2cc(CN3CCC(O)(c4ccc5c(c4)C(=O)N(C4CCC(=O)NC4=O)C5=O)CC3)ccc21 (stereo not drawn) [Compound 141, 2-(2,6-dioxopiperidin-3-yl)-5-{4-hydroxy-1-[(1-methyl-1H-indol-5-yl)methyl]piperidin-4-yl}-2,3-dihydro-1H-isoindole-1,3-dione, HCl salt]	11	86	–	–
O=C1CCC(N2C(=O)c3ccc(C4(O)CCN(Cc5ccc6[nH]ccc6c5)CC4)cc3C2=O)C(=O)N1 (stereo not drawn) [Compound 144, 2-(2,6-dioxopiperidin-3-yl)-5-{4-hydroxy-1-[(1H-indol-5-yl)methyl]piperidin-4-yl}-2,3-dihydro-1H-isoindole-1,3-dione, formic acid salt]	16	88	–	–
COC[C@H]1CC[C@H](CN2CCC(c3ccc4c(c3)C(=O)N(C3CCC(=O)NC3=O)C4=O)CC2)CC1 (stereo partly drawn) [Compound 85, trans-2-(2,6-dioxopiperidin-3-yl)-5-(1-((4-(methoxymethyl)cyclohexyl)methyl)piperidin-4-yl)isoindoline-1,3-dione formic acid]	–	25	–	–
O=C1CCC(N2C(=O)c3ccc(C4(O)CCN(C(CF)c5ccccc5)CC4)cc3C2=O)C(=O)N1 (stereo not drawn) [Compound 34, 2-(2,6-dioxopiperidin-3-yl)-5-[1-(2-fluoro-1-phenylethyl)-4-hydroxypiperidin-4-yl]-2,3-dihydro-1H-isoindole-1,3-dione, formic acid salt]	31	76	–	–
O=C1CCC(N2C(=O)c3ccc(C4(O)CCN(CC(O)c5ccccc5)CC4)cc3C2=O)C(=O)N1 (stereo not drawn) [Compound 149, 2-(2,6-dioxopiperidin-3-yl)-5-(4-hydroxy-1-(2-hydroxy-2-phenylethyl)piperidin-4-yl)isoindoline-1,3-dione]	22	76	–	–
